Holding throughout (format): biochemical
In one experiment the target is JAK2 (Homo sapiens, UniProt O60674). Put plainly: experiment of inhibiting kinase activity (Caliper mobility shift assay), JAK2. Particulars: for inhibition at 0.1 µM: at 100 nM; for inhibition at 0.1 µM / inhibition at 0.01 µM: read-out: inhibition rate JAK2; for pIC50: kinase activity assay, Table 3; for inhibition at 0.01 µM: at 10 nM. The protocol:
(§1) The inhibition rates of tested compounds on JAK1, JAK2, JAK3, TYK2, CDK7, CDK9, EGFR (T790M) and LRRK2 kinases were measured. The test concentrations of the compounds were 10 nM and 100 nM, and the detection was performed by replicate wells. Alternatively, compounds were 3-fold serial diluted from 10 µM for 10 concentrations in replicate wells.
(§2) The inhibitory effects of the compounds on JAK1, JAK2, JAK3, CDK7 and CDK9 kinases were detected by the method of Caliper mobility shift assay. 250 nL of the compound at 100-fold final concentration was transferred to a destination plate 384-well-plate by using a liquid handler Echo 550. A kinase solution at 2.5-fold final concentration was prepared with 1×kinase buffer. 10 µL of the kinase solution with 2.5-fold final concentration was added to compound wells and positive control wells; and 10 µL of 1×kinase buffer was added to negative control wells. The mixture was centrifuged at 1000 rpm for 30 seconds and then incubated at room temperature for 10 minutes. A mixed solution of ATP and kinase substrate at 5/3-fold final concentration was prepared with 1×kinase buffer, and 15 µL of the mixed solution of ATP and substrate at 5/3-fold final concentration was added to start the reaction. The 384-well plate was centrifuged at 1000 rpm for 30 seconds, shaked and mixed evenly, then incubated at room temperature for a corresponding time. 30 µL of stop solution was added to stop the kinase reaction, the mixture was centrifuged at 1000 rpm for 30 seconds, and shaked and mixed evenly. The conversion rate was read by Caliper EZ Reader. The conversion inhibition rate%=(average positive control conversion rate%-sample conversion rate%)/(average positive control conversion rate%-average negative control conversion rate%). Where negative control wells represent the conversion readings of the background well of kinase buffer; and positive control wells represent the conversion readings of wells without compound inhibition. With the log value of concentration as the x axis and the percentage inhibition rate as the y axis, the dose-response curve was fitted by the log (inhibitor) vs. response-variable slope of the analyzing softwar GraphPad Prism 5, and the IC50 values of each compound on enzyme activity were obtained. Calculation formula is as follows: y=Bottom+(Top-Bottom)/(1+10^((LogIC50-x)×hillslope)), where x is logarithm of inhibitor concentration; and Y is % inhibition rate.

Another experiment addresses LRRK2 (Homo sapiens, UniProt Q5S007). Kind of experiment: experiment of inhibiting kinase activity, LRRK2. The settings on record: for inhibition at 0.1 µM: at 100 nM; for inhibition at 0.1 µM / inhibition at 0.01 µM: read-out: inhibition rate LRRK2; for pIC50: kinase activity assay, Table 3; for inhibition at 0.01 µM: at 10 nM. The protocol: as §1
The target in another experiment is T1, JAK3 (Homo sapiens, UniProt P52333).
T1 sequence (P52333 1-1124): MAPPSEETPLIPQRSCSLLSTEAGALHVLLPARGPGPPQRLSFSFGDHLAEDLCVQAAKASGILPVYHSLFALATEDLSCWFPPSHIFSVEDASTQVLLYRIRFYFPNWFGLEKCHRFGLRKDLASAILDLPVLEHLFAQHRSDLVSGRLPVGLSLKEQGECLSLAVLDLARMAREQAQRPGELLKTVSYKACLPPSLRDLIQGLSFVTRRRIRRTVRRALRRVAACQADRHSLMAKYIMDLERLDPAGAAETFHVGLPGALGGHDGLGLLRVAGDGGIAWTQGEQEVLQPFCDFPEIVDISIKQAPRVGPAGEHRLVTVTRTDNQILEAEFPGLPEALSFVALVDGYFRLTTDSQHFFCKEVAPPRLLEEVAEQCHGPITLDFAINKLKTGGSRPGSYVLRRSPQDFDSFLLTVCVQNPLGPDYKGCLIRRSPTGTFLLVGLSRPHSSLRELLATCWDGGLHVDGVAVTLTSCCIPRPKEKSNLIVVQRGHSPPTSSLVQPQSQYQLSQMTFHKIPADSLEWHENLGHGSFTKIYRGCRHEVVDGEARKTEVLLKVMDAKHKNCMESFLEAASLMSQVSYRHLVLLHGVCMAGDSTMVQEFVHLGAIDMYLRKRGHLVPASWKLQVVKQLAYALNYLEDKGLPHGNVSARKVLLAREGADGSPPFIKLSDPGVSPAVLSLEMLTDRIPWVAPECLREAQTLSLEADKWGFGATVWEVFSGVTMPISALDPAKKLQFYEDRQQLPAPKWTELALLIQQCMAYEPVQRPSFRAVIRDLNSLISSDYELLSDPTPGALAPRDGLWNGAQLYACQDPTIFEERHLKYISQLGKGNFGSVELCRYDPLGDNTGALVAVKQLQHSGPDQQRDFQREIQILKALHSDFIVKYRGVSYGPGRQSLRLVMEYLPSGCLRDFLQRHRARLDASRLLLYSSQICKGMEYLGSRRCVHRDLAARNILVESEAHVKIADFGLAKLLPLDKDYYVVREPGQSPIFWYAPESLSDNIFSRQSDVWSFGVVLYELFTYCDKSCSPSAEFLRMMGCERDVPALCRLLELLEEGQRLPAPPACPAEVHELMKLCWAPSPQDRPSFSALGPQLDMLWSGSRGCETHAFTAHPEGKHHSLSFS
Kind of experiment: experiment of inhibiting kinase activity (Caliper mobility shift assay), JAK3. The settings on record: for inhibition at 0.01 µM: at 10 nM. The method, then: as §1, §2

In a further experiment the target is TYK2 (Homo sapiens, UniProt P29597). Put plainly: experiment of inhibiting kinase activity, TYK2. The settings on record: read-out: inhibition rate TYK2; for inhibition at 0.01 µM: at 10 nM. The method, then: as §1
Chain of TYK2 (P29597 whole entry): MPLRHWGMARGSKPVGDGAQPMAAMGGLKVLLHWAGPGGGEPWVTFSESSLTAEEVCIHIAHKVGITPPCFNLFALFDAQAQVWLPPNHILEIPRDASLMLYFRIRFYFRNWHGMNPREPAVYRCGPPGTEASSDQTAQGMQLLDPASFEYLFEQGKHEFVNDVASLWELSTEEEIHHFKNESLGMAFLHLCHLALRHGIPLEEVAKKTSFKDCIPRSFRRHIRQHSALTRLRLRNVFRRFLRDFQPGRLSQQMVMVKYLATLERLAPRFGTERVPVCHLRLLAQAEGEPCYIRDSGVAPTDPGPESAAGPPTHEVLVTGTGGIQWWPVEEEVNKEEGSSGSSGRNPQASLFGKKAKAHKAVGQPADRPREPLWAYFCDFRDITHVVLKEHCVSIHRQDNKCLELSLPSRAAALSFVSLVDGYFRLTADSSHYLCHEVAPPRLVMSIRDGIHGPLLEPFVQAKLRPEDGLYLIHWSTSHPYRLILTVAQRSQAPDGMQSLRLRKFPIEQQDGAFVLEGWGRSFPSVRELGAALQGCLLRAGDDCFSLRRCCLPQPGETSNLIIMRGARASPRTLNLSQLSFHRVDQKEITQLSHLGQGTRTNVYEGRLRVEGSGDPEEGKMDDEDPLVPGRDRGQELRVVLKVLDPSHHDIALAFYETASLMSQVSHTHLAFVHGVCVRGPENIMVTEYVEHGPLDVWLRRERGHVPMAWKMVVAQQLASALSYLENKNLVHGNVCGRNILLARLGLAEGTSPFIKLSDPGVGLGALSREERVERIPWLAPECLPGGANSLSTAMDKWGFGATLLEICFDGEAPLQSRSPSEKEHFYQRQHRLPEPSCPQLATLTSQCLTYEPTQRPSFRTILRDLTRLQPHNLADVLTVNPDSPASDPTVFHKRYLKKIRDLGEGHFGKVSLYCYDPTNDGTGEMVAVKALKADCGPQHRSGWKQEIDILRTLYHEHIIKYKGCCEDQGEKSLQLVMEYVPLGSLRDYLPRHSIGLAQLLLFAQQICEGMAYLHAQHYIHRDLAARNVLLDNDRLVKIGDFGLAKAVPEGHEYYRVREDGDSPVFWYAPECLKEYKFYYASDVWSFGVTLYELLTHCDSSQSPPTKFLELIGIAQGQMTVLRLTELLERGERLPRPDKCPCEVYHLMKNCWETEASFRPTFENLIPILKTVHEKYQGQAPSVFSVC
For the next experiment, the target named is JAK1 (Homo sapiens, UniProt P23458). Kind of experiment: experiment of inhibiting kinase activity (Caliper mobility shift assay), JAK1. Particulars: read-out: inhibition rate JAK1; for inhibition at 0.01 µM: at 10 nM. The protocol:
as §1, §2

Structures are written as SMILES. pIC50: −log10 of the molar value.

Chain of JAK2 (O60674 whole entry): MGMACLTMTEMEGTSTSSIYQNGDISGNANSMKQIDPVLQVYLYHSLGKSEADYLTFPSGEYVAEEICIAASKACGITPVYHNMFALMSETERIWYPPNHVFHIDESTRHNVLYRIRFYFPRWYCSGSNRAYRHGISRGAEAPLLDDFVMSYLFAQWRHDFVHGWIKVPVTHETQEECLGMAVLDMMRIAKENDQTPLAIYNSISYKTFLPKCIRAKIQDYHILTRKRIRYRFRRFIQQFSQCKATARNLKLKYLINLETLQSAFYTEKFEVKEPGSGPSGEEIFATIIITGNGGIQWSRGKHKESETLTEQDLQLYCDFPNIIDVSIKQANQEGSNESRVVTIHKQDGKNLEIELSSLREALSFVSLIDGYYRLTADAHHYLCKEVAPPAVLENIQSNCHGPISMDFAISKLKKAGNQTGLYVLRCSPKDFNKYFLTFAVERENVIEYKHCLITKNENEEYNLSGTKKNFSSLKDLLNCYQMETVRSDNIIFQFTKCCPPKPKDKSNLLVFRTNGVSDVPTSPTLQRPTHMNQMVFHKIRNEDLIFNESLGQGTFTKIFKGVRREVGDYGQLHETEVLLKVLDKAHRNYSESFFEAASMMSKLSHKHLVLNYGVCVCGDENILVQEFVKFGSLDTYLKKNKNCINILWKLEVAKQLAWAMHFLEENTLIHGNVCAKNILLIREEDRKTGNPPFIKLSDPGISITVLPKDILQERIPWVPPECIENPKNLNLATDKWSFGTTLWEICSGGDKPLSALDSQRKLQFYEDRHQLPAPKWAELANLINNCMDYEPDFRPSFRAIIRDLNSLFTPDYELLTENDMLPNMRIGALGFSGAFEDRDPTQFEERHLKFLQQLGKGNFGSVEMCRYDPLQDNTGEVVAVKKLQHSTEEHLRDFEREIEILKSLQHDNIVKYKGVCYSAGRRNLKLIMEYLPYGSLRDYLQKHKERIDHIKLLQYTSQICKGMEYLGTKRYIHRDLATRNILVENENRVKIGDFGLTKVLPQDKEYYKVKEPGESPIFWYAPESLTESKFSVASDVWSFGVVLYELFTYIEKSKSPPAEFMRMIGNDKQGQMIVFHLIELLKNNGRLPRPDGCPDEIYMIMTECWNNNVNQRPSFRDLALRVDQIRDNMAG
Chain of LRRK2 (Q5S007 whole entry): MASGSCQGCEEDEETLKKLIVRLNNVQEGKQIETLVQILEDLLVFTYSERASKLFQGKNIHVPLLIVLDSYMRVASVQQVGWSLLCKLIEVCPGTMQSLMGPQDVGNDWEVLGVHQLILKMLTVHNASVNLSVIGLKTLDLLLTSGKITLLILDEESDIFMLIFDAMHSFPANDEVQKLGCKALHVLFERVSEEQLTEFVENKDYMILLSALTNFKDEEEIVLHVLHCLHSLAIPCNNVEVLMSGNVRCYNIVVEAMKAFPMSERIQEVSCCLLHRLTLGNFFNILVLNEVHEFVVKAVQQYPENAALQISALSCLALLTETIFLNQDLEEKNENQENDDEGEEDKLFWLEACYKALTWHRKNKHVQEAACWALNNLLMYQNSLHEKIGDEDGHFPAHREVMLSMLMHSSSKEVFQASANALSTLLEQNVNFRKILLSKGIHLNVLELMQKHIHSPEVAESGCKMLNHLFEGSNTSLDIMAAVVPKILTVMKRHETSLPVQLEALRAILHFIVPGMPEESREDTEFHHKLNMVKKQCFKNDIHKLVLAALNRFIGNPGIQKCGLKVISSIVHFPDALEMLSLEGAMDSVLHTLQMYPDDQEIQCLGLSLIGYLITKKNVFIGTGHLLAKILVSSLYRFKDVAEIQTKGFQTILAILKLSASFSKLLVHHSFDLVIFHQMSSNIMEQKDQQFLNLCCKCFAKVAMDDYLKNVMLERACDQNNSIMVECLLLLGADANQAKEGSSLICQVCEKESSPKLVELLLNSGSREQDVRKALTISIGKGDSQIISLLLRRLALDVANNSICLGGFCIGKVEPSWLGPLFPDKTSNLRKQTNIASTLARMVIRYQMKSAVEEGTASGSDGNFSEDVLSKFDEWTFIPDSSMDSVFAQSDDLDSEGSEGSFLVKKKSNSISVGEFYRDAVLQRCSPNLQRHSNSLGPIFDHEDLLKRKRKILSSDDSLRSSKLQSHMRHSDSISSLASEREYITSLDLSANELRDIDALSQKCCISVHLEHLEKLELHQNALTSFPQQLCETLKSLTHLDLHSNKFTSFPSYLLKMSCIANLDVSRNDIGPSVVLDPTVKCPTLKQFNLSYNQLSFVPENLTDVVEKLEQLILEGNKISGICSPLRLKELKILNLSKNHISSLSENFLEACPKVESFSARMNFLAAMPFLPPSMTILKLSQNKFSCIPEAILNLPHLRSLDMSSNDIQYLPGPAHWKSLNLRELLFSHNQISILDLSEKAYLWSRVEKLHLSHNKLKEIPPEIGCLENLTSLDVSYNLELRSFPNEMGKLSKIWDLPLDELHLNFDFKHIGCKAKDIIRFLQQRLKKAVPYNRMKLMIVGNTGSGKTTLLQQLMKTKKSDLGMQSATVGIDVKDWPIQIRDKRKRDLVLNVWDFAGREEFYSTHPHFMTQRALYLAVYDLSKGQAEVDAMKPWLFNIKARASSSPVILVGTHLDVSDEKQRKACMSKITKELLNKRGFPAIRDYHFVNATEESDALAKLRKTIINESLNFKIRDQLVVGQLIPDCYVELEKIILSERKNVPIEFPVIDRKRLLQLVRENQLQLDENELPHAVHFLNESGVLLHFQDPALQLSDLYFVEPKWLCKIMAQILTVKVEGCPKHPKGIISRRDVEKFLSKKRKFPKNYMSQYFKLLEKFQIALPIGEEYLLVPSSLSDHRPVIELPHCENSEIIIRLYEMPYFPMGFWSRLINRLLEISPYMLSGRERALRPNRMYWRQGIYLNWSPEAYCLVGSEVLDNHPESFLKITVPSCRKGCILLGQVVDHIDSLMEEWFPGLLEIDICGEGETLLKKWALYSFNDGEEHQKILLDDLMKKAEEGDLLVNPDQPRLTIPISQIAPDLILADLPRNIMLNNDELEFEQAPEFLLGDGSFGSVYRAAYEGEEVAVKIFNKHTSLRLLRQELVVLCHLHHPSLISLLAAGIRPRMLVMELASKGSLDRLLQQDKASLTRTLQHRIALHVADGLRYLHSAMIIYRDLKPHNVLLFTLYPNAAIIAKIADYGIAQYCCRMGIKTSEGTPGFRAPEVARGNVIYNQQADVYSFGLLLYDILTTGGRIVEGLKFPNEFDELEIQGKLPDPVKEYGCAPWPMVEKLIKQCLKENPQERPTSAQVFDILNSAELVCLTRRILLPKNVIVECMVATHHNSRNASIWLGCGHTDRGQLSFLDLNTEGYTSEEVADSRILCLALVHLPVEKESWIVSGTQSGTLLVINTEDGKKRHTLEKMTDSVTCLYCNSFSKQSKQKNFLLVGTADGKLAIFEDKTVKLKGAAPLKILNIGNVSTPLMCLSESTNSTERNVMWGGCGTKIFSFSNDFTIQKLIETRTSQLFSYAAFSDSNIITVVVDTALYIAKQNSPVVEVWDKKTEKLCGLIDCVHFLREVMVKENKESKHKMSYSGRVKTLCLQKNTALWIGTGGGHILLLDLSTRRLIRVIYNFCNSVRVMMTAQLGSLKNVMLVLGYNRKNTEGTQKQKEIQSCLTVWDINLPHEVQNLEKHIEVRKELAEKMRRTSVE

For the compound `CN1CCOc2ccc(Nc3ncc(F)c(-c4cn(C)c5ccccc45)n3)cc2OCC1` [Example 13, N-(5-fluoro-4-(1-methyl-1H-indol-3-yl)pyrimidin-2-yl)-4-methyl-3,4,5,6-tetrahydro-2H -benzo[b][1,4,7]bisoxazolin-9-amine], the inhibition at 0.1 µM on JAK2 lay in the range of 40 to 79%; at LRRK2 it was 40 to 79%; on TYK2 (at 100 nM), 25 to 39%. For the same compound, the pIC50 at JAK2 was greater than 7.30; against LRRK2, 6.70 to 7.30; on JAK3 (kinase activity assay, Table 3), 6.70 to 7.30.
As for `CN1CCOCCOc2cc(Nc3nc(Nc4ccccc4NS(C)(=O)=O)c4cc[nH]c4n3)ccc2OCC1` [Example 61, N-(2-((2-((7-methyl-2,3,6,7,8,9-hexahydro-5H-benzo[b][1,4,7]trioxa[10]azacyclododecan-13-yl)amino)-7H-pyrrolo[2,3-d]pyrimidin-4-yl)amino)phenyl)methanesulfonamide], the inhibition at 0.01 µM on JAK2 was 40 to 79%; at LRRK2, greater than 80%; at JAK3 (read-out: inhibition rate JAK3) it was 40 to 79%. The compound also had a pIC50 on LRRK2 greater than 7.30.
With `CN1CCOc2ccc(Nc3ncc(Cl)c(Nc4cccc(NC(=O)[C@H]5C[C@H](N)C5)c4)n3)cc2OCC1` [Example 72, (1r,3r)-3-amino-N-(3-((5-chloro-2-((4-methyl-3,4,5,6-tetrahydro-2H-benzo[b][1,4,7]dioxazolin-9-yl)amino)pyrimidin-4-yl)amino)phenyl)cyclobutan-1-carboxamide], the inhibition at 0.01 µM at JAK2 was 40 to 79%; at JAK1 it was 25 to 39%.
With `CN1CCOc2ccc(Nc3nc(N4C[C@H]5CC[C@@H](C4)N5C(=O)C4CC4)c4cc[nH]c4n3)cc2OCC1` [Example 79, cyclopropyl((1R,5S)-3-(2-((4-methyl-3,4,5,6-tetrahydro-2H-benzo[b][1,4,7]dioxazolin-9-yl)amino)-7H-pyrrolo[2,3-d]pyrimidin-4-yl)-3,8-diazabicyclo[3.2.1]octan-8-yl)methanone], the inhibition at 0.01 µM at JAK2 is greater than 80%; at JAK1 it was 40 to 79%; on LRRK2, 40 to 79%; at TYK2, greater than 80%.
On to `CN1CCOc2ccc(Nc3nc(-c4cnn(C5CN(S(C)(=O)=O)C5)c4)c4cc[nH]c4n3)cc2OCC1` [Example 69, 4-methyl-N-(4-(1-(1-(methylsulfonyl)azetidin-3-yl)-1H-pyrazol-4-yl)-7H-pyrrolo [2,3-d]pyrimidin-2-yl)-3,4,5,6-tetrahydro-2H-benzo[b][1,4,7]dioxazolin-9-amine], for which the values for the inhibition at 0.01 µM on JAK2, on LRRK2 and on JAK3 (read-out: inhibition rate JAK3) were 40 to 79%, 25 to 39% and 25 to 39%, respectively.
With `CN1CCOc2ccc(Nc3ncc(F)c(Nc4cccc(S(=O)(=O)NC(C)(C)C)c4)n3)cc2OCC1` [Example 1, N-(tert-butyl)-3-((5-fluoro-2-((4-methyl-3,4,5,6-tetrahydro-2H-benzo[b][1,4,7]dioxazolin-9-yl)amino)pyrimidin-4-yl)amino)benzsulfamide], at JAK2, the inhibition at 0.01 µM is 40 to 79%, the inhibition at 0.1 µM was greater than 80% and the negative logarithm of the IC50 (pIC50) was greater than 7.30. The inhibition at 0.1 µM on JAK1 (at 100 nM) lay in the range of 25 to 39%. The inhibition at 0.1 µM on JAK3 (at 100 nM, read-out: inhibition rate JAK3) is 25 to 39%.
Regarding `CNc1nc(Nc2ccc3c(c2)OCCN(C)CCO3)nc2[nH]ccc12` [Example 64, N^4-methyl-N^2-(4-methyl-3,4,5,6-tetrahydro-2H-benzo[b][1,4,7]dioxazolin-9-yl)-7H-pyrrolo[2,3-d]pyrimidin-2,4-diamine], the inhibition at 0.1 µM on JAK2 is 25 to 39%; at LRRK2 it was greater than 80%.
Regarding `CCS(=O)(=O)N1CC(CC#N)(n2cc(-c3nc(Nc4ccc5c(c4)OCCN(C)CCOCCO5)nc4[nH]ncc34)cn2)C1` [Example 50, 2-(1-(ethylsulfonyl)-3-(4-(6-((7-methyl-2,3,6,7,8,9-hexahydro-5H-benzo[b][1,4,7]trioxa[10]azacyclododecan-12-yl)amino)-1H-pyrazolo[3,4-d]pyrimidin-4-yl)-1H-pyrazol-1-y 1)azetidin-3-yl)acetonitrile], the inhibition at 0.01 µM was greater than 80% at JAK2 and 25 to 39% at TYK2.
Turning to `CN1CCOc2ccc(Nc3nc(Nc4cccc(S(=O)(=O)NC(C)(C)C)c4)c4cc[nH]c4n3)cc2OCC1` [Example 21, N-(tert-butyl)-3-((2-((4-methyl-3,4,5,6-tetrahydro-2H-benzo[b][1,4,7]dioxazolin-9-yl)amino)-7H-pyrrolo[2,3-d]pyrimidin-4-yl)amino)benzenesulfonamide], on JAK2, the inhibition at 0.1 µM was 40 to 79% and the negative-log IC50 (pIC50) was greater than 7.30. Also, on LRRK2, the inhibition at 0.1 µM is 40 to 79% and the pIC50 was 6.70 to 7.30.
With `CCS(=O)(=O)N1CC(CC#N)(n2cc(-c3nc(Nc4ccc5c(c4)OCCN(C)CCOCCO5)ncc3F)cn2)C1` [Example 43, 2-(1-(ethylsulfonyl)-3-(4-(5-fluoro-2-((7-methyl-2,3,6,7,8,9-hexahydro-5H-benzo[b][1,4,7]trioxa[10]azacyclododecan-12-yl)amino)pyrimidin-4-yl)-1H-pyrazol-1-yl)azetidin-3-yl) acetonitrile], the inhibition at 0.01 µM on JAK2 is greater than 80%; at LRRK2, 25 to 39%; on JAK3 (read-out: inhibition rate JAK3), 25 to 39%; on TYK2 it was 40 to 79%.
Turning to `CN1CCOCCOc2cc(Nc3nc(-c4cnn(S(C)(=O)=O)c4)c4cc[nH]c4n3)ccc2OCC1` [Example 63, 7-methyl-N-(4-(1-(methylsulfonyl)-1H-pyrazol-4-yl)-7H-pyrrolo[2,3-d]pyrimidin-2-yl)-2,3,6,7,8,9-hexahydro-5H-benzo[b][1,4,7]trioxa[10]azacyclododecan-13-amine], the inhibition at 0.01 µM at JAK2 and at LRRK2 was 40 to 79% in each case.
Regarding `CN1CCOCCOc2ccc(Nc3ncc(F)c(-c4cn(C)c5ccccc45)n3)cc2OCC1` [Example 41, N-(5-fluoro-4-(1-methyl-1H-indol-3-yl)pyrimidin-2-yl)-7-methyl-2,3,6,7,8,9-hexahydro-5H-benzo[b][1,4,7]trioxa[10]azacyclododecan-12-amine], the results for the inhibition at 0.01 µM at JAK2 and on JAK3 (read-out: inhibition rate JAK3) were 40 to 79% and 25 to 39%, respectively.

The record behind these values is EP4592286A1, “MACROCYCLIC NITROGEN-CONTAINING CROWN ETHER COMPOUND AND USE THEREOF AS PROTEIN KINASE INHIBITOR” (Artivila Biopharma, priority 2022, dated 2024).
